Reference: patent publication US20100311668A1, “PERSONAL CARE AND COSMETIC COMPOSITION CONTAINING TETRAPEPTIDES WITH THE MOTIFS GX1X2G, PX1X2P, OR PX1X2K” (EVONIK GOLDSCHMIDT GMBH, priority 2007, published 2010)
Ends that are not written are not given here.

Tests used:
[1] = test system: hyaluronic acid synthetase 1 (HAS1); experiment: Hyaluronic acid synthetase 1 (HAS1) mRNA expression in human dermal fibroblasts, quantitative PCR; assay type: cell-based; details: HDFs, 1 μg/ml peptide, 24 hours, vs PBS control, normalized to 18S rRNA
Description: (§1) FIG. 2: Hyaluronic acid synthetase 1 (HAS1) expression in human dermal fibroblasts (HDFs). […] Controls received PBS. Cells were harvested after 24 hours incubation and RNA was isolated. Expression of […] was determined by quantitative PCR. 18s rRNA served as house keeping gene for normalization. Given are means of three independent experiments.
(§2) Therefore, HDFs prepared from neonatal foreskin were cultured in EMEM (Life Technologies GmbH, Eggenstein, Germany) supplemented with 5% fetal calf serum (Greiner, Frickenhausen, Germany), 0.1% 1-glutamine, 2.5% NaHCO3, and 1% streptomycin/amphotericin B in a humidified atmosphere containing 5% CO2 for 4 days until they reached confluence as described by Schieke et al. J Invest Dermatol 2002, 119: 1323-9. […]
(§3) For isolation of total RNA RNeasy Total RNA Kits (Qiagen, Hilden; Germany) were used according to the manufacturer's guidelines. The RNA concentration was determined via photometric measurement at 260/280 (Biophotometer, Eppendorf, Hamburg, Germany).
(§4) Aliquots of total RNA (100 ng) were applied for cDNA-Synthesis using Superscript™ III First-Strand synthesis system for the reverse transcription step with random […] (Invitrogen, Karlsruhe, Germany). […] Three independent experiments were performed with 3 determinations each and the mean value of these was calculated. […] Each sample was analyzed in double employing the universal protocol over 46 cycles. […]

[2] = test system: human dermal fibroblasts (HDFs); experiment: Collagen production in human dermal fibroblasts, Sircol Soluble Collagen Assay of culture supernatants; assay type: cell-based; details: 1 μg/ml peptide, 24 hours, vs PBS control
Description: FIG. 5: Collagen production in human dermal fibroblasts (HDFs). […] Controls received PBS. Cell culture supernatands were collected after 24 hours incubation. Amounts of collagen were determined as described above. Given are means of three independent experiments.
Therefore, HDFs prepared from neonatal foreskin were cultured in EMEM (Life Technologies GmbH, Eggenstein, Germany) supplemented with 5% fetal calf serum (Greiner, Frickenhausen, Germany), 0.1% 1-glutamine, 2.5% NaHCO3, and 1% streptomycin/amphotericin B in a humidified atmosphere containing 5% CO2 for 4 days until they reached confluence as described by Schieke et al. J Invest Dermatol 2002, 119: 1323-9. For all studies, only early passage (<12) fibroblasts have been used to avoid changes in their original phenotype during subculture. Cells were kept in 6 well plates for culture. Peptides dissolved in PBS were added at concentrations of 1 μg/ml and incubated for 24 hours.
The amount of collagen in cell culture supernatants was determined utilizing a Sircol™ Soluble Collagen Assay (# S1000) from Biocolor Ltd. (Newtownabbay, Northern Ireland, UK) following the guidelines of the manufacturer.

fibronectin 1 (FN1) = experiment: Fibronectin 1 (FN1) mRNA expression in human dermal fibroblasts, quantitative PCR; assay type: cell-based; details: HDFs, 1 μg/ml peptide, 24 hours, vs PBS control, normalized to 18S rRNA
Description: as §1, with “1: Fibronectin” for “2: Hyaluronic acid synthetase”, “(FN1)” for “(HAS1)”
as §2, §3, §4

[3] = test system: collagen 1 alpha-2 (COL1A2); experiment: Collagen 1 alpha-2 (COL1A2) mRNA expression in human dermal fibroblasts, quantitative PCR; assay type: cell-based; details: HDFs, 1 μg/ml peptide, 24 hours, vs PBS control, normalized to 18S rRNA
Description: FIG. 4: Collagen 1 alpha-2 (COL1A2) expression in human dermal fibroblasts (HDFs). […] Controls received PBS. Cells were harvested after 24 hours incubation and RNA was isolated. […] 18s rRNA served as house keeping gene for normalization. Given are means of three independent experiments.
Aliquots of total RNA (100 ng) were applied for cDNA-Synthesis using Superscript™ III First-Strand synthesis system for the reverse transcription step with random healers (Invitrogen, Karlsruhe, Germany). […] Three independent experiments were performed with 3 determinations each and the mean value of these was calculated. […] Each sample was analyzed in double employing the universal protocol over 46 cycles. […]

[4] = test system: proinflammatory cytokines; experiment: Inhibition of UV-induced expression of proinflammatory cytokines
collagen = details: prior-art product background; cited from earlier work
[5] = test system: collagen 1 alpha-1 (COL1A1); experiment: Collagen 1 alpha-1 (COL1A1) mRNA expression in human dermal fibroblasts, quantitative PCR; assay type: cell-based; details: HDFs, 1 μg/ml peptide, 24 hours, vs PBS control, normalized to 18S rRNA
Description: as §1, with “3: Collagen” for “2: Hyaluronic acid synthetase”, “alpha-1 (COL1A1)” for “(HAS1)”
as §2, §3, §4

Substance: GEKG (also: N-acyl group, acyl not given here) [SEQ ID NO:3, tetrapeptide GEKG]
- HAS1 expression [1]: strongest effects
- collagen production (collagen protein in cell culture supernatants) [2]: markedly increased production of collagen

Substance: GPPG (also: N-acyl group, acyl not given here) [SEQ ID NO:2, tetrapeptide GPPG]
- FN1 expression (fibronectin 1 (FN1)): strongest effects

Substance: GEPG (also: N-acyl group, acyl not given here) [SEQ ID NO:1, tetrapeptide GEPG]
- HAS1 expression [1]: strongest effects
- COL1A2 expression [3]: triggering effects

Substance: PGPP (also: N-acyl group, acyl not given here) [SEQ ID NO:4, tetrapeptide PGPP]
- FN1 expression (fibronectin 1 (FN1)): strongest effects
- COL1A2 expression [3]: triggering effects
- collagen production (collagen protein in cell culture supernatants) [2]: markedly increased production of collagen

Substance: PKEK (also: N-acyl group, acyl not given here) [tetrapeptide PKEK]
- inhibition of UV-induced expression of proinflammatory cytokines [4]: inhibition of UV-induced expression of proinflammatory cytokines

Substance: Val-Trp
- collagen stimulating activity (collagen): no significant collagen stimulating activity

Substance: GAGP [SEQ ID NO:11, tetrapeptide GAGP]
- COL1A1 expression [5]: Strongest effects
